In paper PMC8286840, “Identifying SARS-CoV-2 antiviral compounds by screening for small molecule inhibitors of Nsp3 papain-like protease” (Biochemical Journal, 2021):
Where a name gives a salt, the structure may show the parent alone. Read-outs that look alike come from different tables or passages of the source. Where a SMILES comes first, the peptide text is derived from it. The star is where a group is joined. Cbz = O=C(OCc1ccccc1)*

Columns and labels:
[1] = target: T1, SARS-CoV-2 PLpro (nsp3 1564–1878) (Severe acute respiratory syndrome coronavirus 2, UniProt P0DTD1); test: biochemical; parameters: FRET-quenched peptide (Pro3) cleavage by PLpro, 10 min pre-incubation, slope over 20 min, normalised to no-compound control; conditions: read-out: % of control remaining
[2] = target: T1, SARS-CoV-2 PLpro (nsp3 1564–1878); test: biochemical; parameters: FRET-quenched peptide (Pro3) cleavage by PLpro, 10 min pre-incubation, slope over 20 min, normalised to no-compound control; conditions: read-out: % of control remaining; remark: listed apart in the source

COc1ccc(CNc2nc(N(CCO)CCO)nc3c2ncn3C(C)C)cc1 [Cdk2 Inhibitor III]
remaining activity at 1.25 µM ([1]; Well no.=2416, low concentration screen): 107% | remaining activity at 3.75 µM ([2]; Well no.=2416, high concentration screen): 110%

O=C(O)/C=C/c1ccc(O)c(O)c1 [Caffeic acid]
remaining activity at 1.25 µM ([1]; Well no.=233, low concentration screen): 99% | remaining activity at 1.25 µM ([1]; Well no.=3957, low concentration screen): 97% | remaining activity at 1.25 µM ([1]; Well no.=7073, low concentration screen): 101% | remaining activity at 3.75 µM ([2]; Well no.=233, high concentration screen): 99.3% | remaining activity at 3.75 µM ([2]; Well no.=3125, high concentration screen): 104% | remaining activity at 3.75 µM ([2]; Well no.=3957, high concentration screen): 96.7% | remaining activity at 3.75 µM ([2]; Well no.=7073, high concentration screen): 95.2%

CCC1=C[C@@H]2CN3CCc4c([nH]c5ccccc45)[C@@](C(=O)OC)(C2)[C@@H]13 [Catharanthine]
remaining activity at 1.25 µM ([1]; Well no.=3595, low concentration screen): 104% | remaining activity at 3.75 µM ([2]; Well no.=3595, high concentration screen): 107%

CC(C)CC(N)=O [Isovaleramide]
remaining activity at 1.25 µM ([1]; Well no.=8346, low concentration screen): 89.1% | remaining activity at 3.75 µM ([2]; Well no.=8346, high concentration screen): 81.6%

Clc1ccc(Cn2c(CN3CCCC3)nc3ccccc32)cc1 [Clemizole hydrochloride]
remaining activity at 1.25 µM ([1]; Well no.=226, low concentration screen): 98.5% | remaining activity at 3.75 µM ([2]; Well no.=226, high concentration screen): 98%

NC1CONC1=O (racemic) [DL-Cycloserine]
remaining activity at 1.25 µM ([1]; Well no.=136, low concentration screen): 109% | remaining activity at 3.75 µM ([2]; Well no.=136, high concentration screen): 108%

COc1cccc2oc(-c3ccccc3)cc(=O)c12 [5-Methoxyflavone]
remaining activity at 1.25 µM ([1]; Well no.=3453, low concentration screen): 92.1% | remaining activity at 3.75 µM ([2]; Well no.=3453, high concentration screen): 90.5%

CN(C)CCCCC(=O)Nc1ccc(NC(=S)NC(=O)c2ccc(C(C)(C)C)cc2)cc1 [Tenovin-6]
remaining activity at 1.25 µM ([1]; Well no.=6724, low concentration screen): 93.8% | remaining activity at 3.75 µM ([2]; Well no.=6724, high concentration screen): 92%

CCCC(CCC)C(=O)O [Divalproex sodium]
remaining activity at 1.25 µM ([1]; Well no.=5341, low concentration screen): 97.2% | remaining activity at 3.75 µM ([2]; Well no.=5341, high concentration screen): 95.4%

CC1(COc2ccc(CC3SC(=O)NC3=O)cc2)CCCCC1 (stereo not shown) [Ciglitizone]
remaining activity at 1.25 µM ([1]; Well no.=222, low concentration screen): 99% | remaining activity at 3.75 µM ([2]; Well no.=222, high concentration screen): 97.7%

NCC[C@H](O)C(=O)N[C@@H]1C[C@H](N)[C@@H](O[C@H]2O[C@H](CN)[C@@H](O)[C@H](O)[C@H]2O)[C@H](O)[C@H]1O[C@H]1O[C@H](CO)[C@@H](O)[C@H](N)[C@H]1O [Amikacin sulfate]
remaining activity at 1.25 µM ([1]; Well no.=5313, low concentration screen): 107% | remaining activity at 3.75 µM ([2]; Well no.=5313, high concentration screen): 99.9%

CCCCCCCCC(=O)NCc1ccc(O)c(OC)c1 [N-Vanillylnonanamide]
remaining activity at 1.25 µM [1]: 96.7% | remaining activity at 3.75 µM [2]: 96.6%

CCCN[C@H]1CCc2nc(N)sc2C1 [Pramipexole]
remaining activity at 1.25 µM ([1]; Well no.=1983, low concentration screen): 101% | remaining activity at 3.75 µM ([2]; Well no.=1983, high concentration screen): 104%

N#C/C(=C(/N)Sc1ccc(N)cc1)c1ccccc1C(F)(F)F
remaining activity at 1.25 µM ([1]; Well no.=2480, low concentration screen): 98.7% | remaining activity at 3.75 µM ([2]; Well no.=2480, high concentration screen): 98.3%

C[C@H]([C@H](O)CCC(C)(C)O)[C@H]1CC[C@@]2(O)C3=CC(=O)[C@@H]4C[C@@H](O)[C@@H](O)C[C@]4(C)[C@H]3CC[C@]12C [Ecdysone]
remaining activity at 1.25 µM ([1]; Well no.=3643, low concentration screen): 104% | remaining activity at 3.75 µM ([2]; Well no.=3643, high concentration screen): 102%

C=C1CC[C@H](O)C/C1=C/C=C1\CCC[C@]2(C)[C@@H]([C@H](C)/C=C/[C@H](C)C(C)C)CC[C@@H]12 [Vitamin D2 (Ergocalciferol)]
remaining activity at 1.25 µM ([1]; Well no.=4684, low concentration screen): 99.3% | remaining activity at 3.75 µM ([2]; Well no.=4684, high concentration screen): 100%

Cc1cnc(-c2cnc(NCCNc3ccc(C#N)cn3)nc2-c2ccc(Cl)cc2Cl)[nH]1 [CHIR99021]
remaining activity at 1.25 µM ([1]; Well no.=5511, low concentration screen): 99.8% | remaining activity at 3.75 µM ([2]; Well no.=5511, high concentration screen): 101%

CCCCN1C[C@H](O)[C@@H](O)[C@H](O)[C@H]1CO [Miglustat]
remaining activity at 1.25 µM ([1]; Well no.=2252, low concentration screen): 97.5% | remaining activity at 3.75 µM ([2]; Well no.=2252, high concentration screen): 95.8%

CC[C@H](C)[C@H](NC(=O)OCc1ccccc1)C(=O)N[C@@H](CCC(=O)O)C(=O)N1CCC[C@H]1C(=O)N[C@@H](Cc1ccccc1)C(=O)OC [CH 5450] (Cbz-IEPF-OMe)
remaining activity at 1.25 µM ([1]; Well no.=8516, low concentration screen): 101% | remaining activity at 3.75 µM ([2]; Well no.=8516, high concentration screen): 102%

CCOc1cc(C(C)(C)C)ccc1C1=N[C@@](C)(c2ccc(Cl)cc2)[C@@](C)(c2ccc(Cl)cc2)N1C(=O)N1CCN(CC(=O)N2CCOCC2)CC1 [p53 and MDM2 proteins-interaction-inhibitor (dihydrochloride)]
remaining activity at 1.25 µM ([1]; Well no.=6832, low concentration screen): 98.9% | remaining activity at 1.25 µM ([1]; Well no.=7702, low concentration screen): 107% | remaining activity at 3.75 µM ([2]; Well no.=6832, high concentration screen): 94.5% | remaining activity at 3.75 µM ([2]; Well no.=7702, high concentration screen): 106%

CN(C)CC(=O)Nc1ccc2[nH]c(=O)c3ccccc3c2c1 [PJ-34]
remaining activity at 1.25 µM ([1]; Well no.=906, low concentration screen): 99.3% | remaining activity at 3.75 µM ([2]; Well no.=906, high concentration screen): 95.6%

O=C(NC1CCNCC1)c1n[nH]cc1NC(=O)c1c(Cl)cccc1Cl [AT-7519]
remaining activity at 1.25 µM ([1]; Well no.=2836, low concentration screen): 97.9% | remaining activity at 3.75 µM ([2]; Well no.=2836, high concentration screen): 98.3%

CC(C)NCC(O)COc1ccc(CCOCC2CC2)cc1 (stereo not shown) [Betaxolol hydrochloride]
remaining activity at 1.25 µM ([1]; Well no.=175, low concentration screen): 102% | remaining activity at 3.75 µM ([2]; Well no.=175, high concentration screen): 101%

CO[C@H]1C[C@@H]2CC[C@@H](C)[C@@](O)(O2)C(=O)C(=O)N2CCCC[C@H]2C(=O)O[C@H]([C@H](C)C[C@@H]2CC[C@H](n3cnnn3)[C@H](OC)C2)CC(=O)[C@H](C)/C=C(\C)[C@@H](O)[C@@H](OC)C(=O)[C@H](C)C[C@H](C)/C=C/C=C/C=C/1C [Zotarolimus]
remaining activity at 1.25 µM ([1]; Well no.=8308, low concentration screen): 90.2% | remaining activity at 3.75 µM ([2]; Well no.=8308, high concentration screen): 91.2%

C[C@](N)(Cc1ccc(O)c(O)c1)C(=O)O [L-alpha-Methyl DOPA]
remaining activity at 1.25 µM ([1]; Well no.=1039, low concentration screen): 97.7% | remaining activity at 3.75 µM ([2]; Well no.=1039, high concentration screen): 98.3%

Oc1ccc2c3c1O[C@H]1c4[nH]c5ccccc5c4C[C@@]4(O)[C@@H](C2)N(CC2CC2)CC[C@]314 [Naltrindole (hydrochloride)]
remaining activity at 1.25 µM ([1]; Well no.=7227, low concentration screen): 103% | remaining activity at 3.75 µM ([2]; Well no.=7227, high concentration screen): 97.5%

CN(C)CCCN1c2ccccc2Sc2ccc(Cl)cc21 [Chlorpromazine hydrochloride]
remaining activity at 1.25 µM ([1]; Well no.=44, low concentration screen): 98.8% | remaining activity at 3.75 µM ([2]; Well no.=44, high concentration screen): 96.9%

CC(=O)OC[C@@]1(O)CC23CC[C@@H]4c5ccoc5C=C[C@@]4(C)[C@@H]2CC[C@@H]1C3 [Kahweol Acetate]
remaining activity at 1.25 µM ([1]; Well no.=3489, low concentration screen): 102% | remaining activity at 3.75 µM ([2]; Well no.=3489, high concentration screen): 103%

CCCN1CCO[C@@H]2c3cc(O)ccc3OC[C@H]21 [S(+)-PD 128,907 hydrochloride]
remaining activity at 1.25 µM ([1]; Well no.=1265, low concentration screen): 102% | remaining activity at 3.75 µM ([2]; Well no.=1265, high concentration screen): 104%

Nc1nc2[nH]cc(CCc3ccc(C(=O)N[C@@H](CCC(=O)O)C(=O)O)cc3)c2c(=O)[nH]1 [Pemetrexed (Alimta)]
remaining activity at 1.25 µM ([1]; Well no.=4677, low concentration screen): 98.1% | remaining activity at 3.75 µM ([2]; Well no.=4677, high concentration screen): 98.7%

O=C1C=CC(=O)C=C1 [p-Benzoquinone]
remaining activity at 1.25 µM ([1]; Well no.=166, low concentration screen): 102% | remaining activity at 3.75 µM ([2]; Well no.=166, high concentration screen): 105%

CC(C)N(CCC(=O)c1ccc2ccccc2c1)Cc1ccccc1 [ZM39923 (hydrochloride)]
remaining activity at 1.25 µM ([1]; Well no.=8170, low concentration screen): 104% | remaining activity at 3.75 µM ([2]; Well no.=8170, high concentration screen): 98%

COc1ccc(C(=O)O[C@H]2CC[C@@]3(C)[C@@H]4CC[C@H]5[C@]6(O)C[C@H](O)[C@@]7(O)[C@@H](CN8C[C@@H](C)CC[C@H]8[C@@]7(C)O)[C@]6(O)C[C@@]53O[C@]24O)cc1OC [Veratridine]
remaining activity at 1.25 µM ([1]; Well no.=3222, low concentration screen): 99.9% | remaining activity at 3.75 µM ([2]; Well no.=3222, high concentration screen): 101%
